This passage reports IC50 results from patent publication US20260297070A1, “CYCLIC [COMPOUND LEFT OUT] WRN INHIBITORS” (Nimbus Wadjet, Inc., priority 2023, published 2026).

The structures appear in SMILES notation.

In this experiment the target is T1, human Werner helicase (WRN-BV08, Uniprot Q14191, amino acids 517-1235 with L1074F point mutation) (Homo sapiens, UniProt Q14191, L1074F).
T1 construct: Uniprot Q14191, amino acids 517-1235 with L1074F point mutation; TEV-cleavable 8×His (C, cleaved yes); made in house; host or cells: Sf9 insect cells (baculovirus)
T1 sequence (Q14191 with tags, fused parts or gaps L1074F limits assumed): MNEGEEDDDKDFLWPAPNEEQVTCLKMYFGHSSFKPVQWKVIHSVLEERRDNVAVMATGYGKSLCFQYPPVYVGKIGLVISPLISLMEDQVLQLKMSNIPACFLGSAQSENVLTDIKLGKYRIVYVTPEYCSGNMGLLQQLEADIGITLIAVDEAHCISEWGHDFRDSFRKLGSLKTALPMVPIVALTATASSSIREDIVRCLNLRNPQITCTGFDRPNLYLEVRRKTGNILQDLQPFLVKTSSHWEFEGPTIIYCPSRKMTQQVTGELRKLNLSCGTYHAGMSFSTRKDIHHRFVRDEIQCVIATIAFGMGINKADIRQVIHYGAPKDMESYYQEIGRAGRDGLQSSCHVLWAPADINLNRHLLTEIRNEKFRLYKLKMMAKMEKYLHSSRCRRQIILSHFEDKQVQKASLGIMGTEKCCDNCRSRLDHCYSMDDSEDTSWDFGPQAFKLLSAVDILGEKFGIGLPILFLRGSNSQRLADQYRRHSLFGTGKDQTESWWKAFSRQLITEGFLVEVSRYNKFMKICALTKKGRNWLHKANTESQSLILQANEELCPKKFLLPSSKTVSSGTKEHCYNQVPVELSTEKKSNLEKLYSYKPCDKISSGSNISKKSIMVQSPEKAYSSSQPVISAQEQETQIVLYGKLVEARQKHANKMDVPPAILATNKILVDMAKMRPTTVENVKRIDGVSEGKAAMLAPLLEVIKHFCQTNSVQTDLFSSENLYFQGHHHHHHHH
Nature of the experiment: WRN (BV08) ADP-Glo Assay. It counts as biochemical. The following applies: 0.15 nM WRN, 5 μM ATP, 0.1 nM DNA duplex, 15 min preincubation, 60 min at 25° C., pH 7.5, 1% DMSO; read-out: ADP-Glo_hWRN_IC50. The gist of the method: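 WRN 0.15 nM + cpd, 15 min 25 °C; add 5 μM ATP / 0.1 nM annealed DNA duplex; 60 min 25 °C; ADP-Glo stop, RLU. Buffer 20 mM Bicine pH 7.5, 1 mM MgCl2, 10 mM KCl, 1 mM TCEP. IC50, 4-parameter fit.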
As to `Cn1cc2cc(CC(=O)N(Cc3ccncc3)C3C=CS(=O)(=O)C3)ccc2n1` (stereo not shown) [I-656, N-(1,1-dioxo-2,3-dihydro-1lambda6-thiophen-3-yl)-2-(2-methyl-2H-indazol-5-yl)-N-[(pyridin-4-yl)methyl]acetamide], the IC50 was greater than 50 µM.
For `O=C(Cc1ccc(S(F)(F)(F)(F)F)cc1)N(Cc1cscn1)C1C=CS(=O)(=O)C1` (stereo not shown) [I-657, N-(1,1-dioxo-2,3-dihydro-1lambda6-thiophen-3-yl)-2-[4-(pentafluoro-lambda6-sulfanyl)phenyl]-N-[(1,3-thiazol-4-yl)methyl]acetamide] the value was 0.5 to 5 µM.
For `O=C(C1CCc2ccc(Br)cc21)N(Cc1ccncc1)C1C=CS(=O)(=O)C1` (stereo not shown) [I-658, 6-bromo-N-(1,1-dioxo-2,3-dihydro-1lambda6-thiophen-3-yl)-N-[(pyridin-4-yl)methyl]-2,3-dihydro-1H-indene-1-carboxamide] the value was greater than 50 µM; for `CC(C)c1csc(CN(C(=O)Cc2ccc(S(F)(F)(F)(F)F)cc2)C2C=CS(=O)(=O)C2)n1` (stereo not shown) [I-659, N-(1,1-dioxo-2,3-dihydro-1lambda6-thiophen-3-yl)-2-[4-(pentafluoro-lambda6-sulfanyl)phenyl]-N-{[4-(propan-2-yl)-1,3-thiazol-2-yl]methyl}acetamide], less than 0.5 µM.
For `COc1cc(CN(C(=O)Cn2ccc(-c3ccc(F)cc3)cc2=O)[C@@H]2C=CS(=O)(=O)C2)ccn1` [I-660, N-[(3R)-1,1-dioxo-2,3-dihydro-1lambda6-thiophen-3-yl]-2-[4-(4-fluorophenyl)-2-oxo-1,2-dihydropyridin-1-yl]-N-[(2-methoxypyridin-4-yl)methyl]acetamide], the IC50 is less than 0.5 µM.
`O=C(Cn1cc(-c2ccc(F)cc2)cn1)N(Cc1ccnc(OC(F)F)c1)C1C=CS(=O)(=O)C1` (stereo not shown) [I-662, N-{[2-(difluoromethoxy)pyridin-4-yl]methyl}-N-(1,1-dioxo-2,3-dihydro-1lambda6-thiophen-3-yl)-2-[4-(4-fluorophenyl)-1H-pyrazol-1-yl]acetamide]: the IC50 was less than 0.5 µM.
With `CS(=O)(=O)N1CCN(C(=O)C(C(=O)N(Cc2ccncc2)C2C=CS(=O)(=O)C2)c2ccc(-c3ccc(F)cc3)cc2)CC1` (stereo not shown) [I-666, N-(1,1-dioxo-2,3-dihydro-1lambda6-thiophen-3-yl)-2-{4′-fluoro-[1,1′-biphenyl]-4-yl}-3-(4-methanesulfonylpiperazin-1-yl)-3-oxo-N-[(pyridin-4-yl)methyl]propanamide], the IC50 lay in the range of 5 to 10 µM.
For `CC(=O)N1CCN(C(=O)C(C(=O)N(Cc2ccncc2)C2C=CS(=O)(=O)C2)c2ccc(-c3ccc(F)cc3)cc2)CC1` (stereo not shown) [I-667, 3-(4-acetylpiperazin-1-yl)-N-(1,1-dioxo-2,3-dihydro-1lambda6-thiophen-3-yl)-2-{4′-fluoro-[1,1′-biphenyl]-4-yl}-3-oxo-N-[(pyridin-4-yl)methyl]propanamide] the value was 0.5 to 5 µM; for `COc1cc(CN(C(=O)Cc2ccc(-c3ccc(F)cn3)c(O)c2)C2C=CS(=O)(=O)C2)ccn1` (stereo not shown) [I-668, N-(1,1-dioxo-2,3-dihydro-1lambda6-thiophen-3-yl)-2-[4-(5-fluoropyridin-2-yl)-3-hydroxyphenyl]-N-[(2-methoxypyridin-4-yl)methyl]acetamide], 5 to 10 µM.
For `O=C(C(c1ccc(-c2ccc(F)cc2)cc1)C1CC1)N(Cc1ccncc1)C1C=CS(=O)(=O)C1` (stereo not shown) [I-677, 2-cyclopropyl-N-(1,1-dioxo-2,3-dihydro-1lambda6-thiophen-3-yl)-2-{4′-fluoro-[1,1′-biphenyl]-4-yl}-N-[(pyridin-4-yl)methyl]acetamide] the value was 10 to 50 µM; for `O=C(C1CCc2cc(Br)ccc2O1)N(Cc1ccncc1)C1C=CS(=O)(=O)C1` (stereo not shown) [I-678, 6-bromo-N-(1,1-dioxo-2,3-dihydro-1lambda6-thiophen-3-yl)-N-[(pyridin-4-yl)methyl]-3,4-dihydro-2H-1-benzopyran-2-carboxamide], greater than 50 µM.
The figure for `O=C(Cc1ccc(S(F)(F)(F)(F)F)cc1)N(CCc1nccs1)C1C=CS(=O)(=O)C1` (stereo not shown) [I-679, N-(1,1-dioxo-2,3-dihydro-1lambda6-thiophen-3-yl)-2-[4-(pentafluoro-lambda6-sulfanyl)phenyl]-N-[2-(1,3-thiazol-2-yl)ethyl]acetamide] is 0.5 to 5 µM.
Take `O=C(Cn1c(=O)n(C2=CCCCC2)c2ccccc21)N(Cc1ccncc1)C1C=CS(=O)(=O)C1` (stereo not shown) [I-680, 2-[3-(cyclohex-1-en-1-yl)-2-oxo-2,3-dihydro-1H-1,3-benzodiazol-1-yl]-N-(1,1-dioxo-2,3-dihydro-1lambda6-thiophen-3-yl)-N-[(pyridin-4-yl)methyl]acetamide]: the IC50 was greater than 50 µM.
The figure for `COc1cc(CN(C(=O)C(c2ccc(-c3ccc(F)c(F)c3)cc2F)n2cccn2)[C@@H]2C=CS(=O)(=O)C2)ccn1` (stereo partly drawn) [I-683, N-[(3R)-1,1-dioxo-2,3-dihydro-1lambda6-thiophen-3-yl]-N-[(2-methoxypyridin-4-yl)methyl]-2-(1H-pyrazol-1-yl)-2-{3,3′,4′-trifluoro-[1,1′-biphenyl]-4-yl}acetamide] is less than 0.5 µM; for `COc1cc(CN(C(=O)Cc2ccc(S(F)(F)(F)(F)F)cc2)C2C=CS(=O)(=O)C2)cc(OC)n1` (stereo not shown) [I-684, N-[(2,6-dimethoxypyridin-4-yl)methyl]-N-(1,1-dioxo-2,3-dihydro-1lambda6-thiophen-3-yl)-2-[4-(pentafluoro-lambda6-sulfanyl)phenyl]acetamide] it is 0.5 to 5 µM; for `COc1cc(CN(C(=O)C(OC2CCN(S(C)(=O)=O)CC2)c2ccc(-c3ccc(F)c(F)c3)cc2F)[C@@H]2C=CS(=O)(=O)C2)ccn1` (stereo partly drawn) [I-687, N-[(3R)-1,1-dioxo-2,3-dihydro-1lambda6-thiophen-3-yl]-2-[(1-methanesulfonylpiperidin-4-yl)oxy]-N-[(2-methoxypyridin-4-yl)methyl]-2-{3,3′,4′-trifluoro-[1,1′-biphenyl]-4-yl}acetamide] it is 5 to 10 µM.
With `CNC(=O)C(C(=O)N(Cc1ccnc(OC)c1)[C@@H]1C=CS(=O)(=O)C1)c1ccc(-c2ccc(F)c(F)c2)cc1F` (stereo partly drawn) [I-688, N′-[(3R)-1,1-dioxo-2,3-dihydro-1lambda6-thiophen-3-yl]-N′-[(2-methoxypyridin-4-yl)methyl]-N-methyl-2-{3,3′,4′-trifluoro-[1,1′-biphenyl]-4-yl}propanediamide], the IC50 is less than 0.5 µM.
For `COc1cc(CN(C(=O)C(OCC#N)c2ccc(-c3ccc(F)c(F)c3)cc2F)[C@@H]2C=CS(=O)(=O)C2)ccn1` (stereo partly drawn) [I-691, 2-(cyanomethoxy)-N-[(3R)-1,1-dioxo-2,3-dihydro-1lambda6-thiophen-3-yl]-N-[(2-methoxypyridin-4-yl)methyl]-2-{3,3′,4′-trifluoro-[1,1′-biphenyl]-4-yl}acetamide] the value was 0.5 to 5 µM; for `COc1cc(CN(C(=O)C(c2ccc(-c3ccc(F)c(F)c3)cc2F)n2cc(OC(F)F)cn2)[C@@H]2C=CS(=O)(=O)C2)ccn1` (stereo partly drawn) [I-695, 2-[4-(difluoromethoxy)-1H-pyrazol-1-yl]-N-[(3R)-1,1-dioxo-2,3-dihydro-1lambda6-thiophen-3-yl]-N-[(2-methoxypyridin-4-yl)methyl]-2-{3,3′,4′-trifluoro-[1,1′-biphenyl]-4-yl}acetamide], less than 0.5 µM.
Turning to `COc1ccc(CC(=O)N(Cc2ccncc2)C2C=CS(=O)(=O)C2)cc1OC(F)F` (stereo not shown) [I-697, 2-[3-(difluoromethoxy)-4-methoxyphenyl]-N-(1,1-dioxo-2,3-dihydro-1lambda6-thiophen-3-yl)-N-[(pyridin-4-yl)methyl]acetamide], the IC50 was greater than 50 µM.
The figure for `O=C(Cc1ncc(-c2ccc(F)c(F)c2)cc1F)N(Cc1ccnc(OC(F)F)c1)C1C=CS(=O)(=O)C1` (stereo not shown) [I-698, N-{[2-(difluoromethoxy)pyridin-4-yl]methyl}-2-[5-(3,4-difluorophenyl)-3-fluoropyridin-2-yl]-N-(1,1-dioxo-2,3-dihydro-1lambda6-thiophen-3-yl)acetamide] is 0.5 to 5 µM.
The figure for `COc1cc(CN(C(=O)Cn2cc3cc(C(F)(F)F)ccc3n2)[C@@H]2C=CS(=O)(=O)C2)ccn1` [I-699, N-[(3R)-1,1-dioxo-2,3-dihydro-1lambda6-thiophen-3-yl]-N-[(2-methoxypyridin-4-yl)methyl]-2-[5-(trifluoromethyl)-2H-indazol-2-yl]acetamide] is 0.5 to 5 µM.
For `CC(C)(N)c1ccc(CN(C(=O)Cc2ccc(S(F)(F)(F)(F)F)cc2)C2C=CS(=O)(=O)C2)cc1` (stereo not shown) [I-700, N-{[4-(2-aminopropan-2-yl)phenyl]methyl}-N-(1,1-dioxo-2,3-dihydro-1lambda6-thiophen-3-yl)-2-[4-(pentafluoro-lambda6-sulfanyl)phenyl]acetamide], the IC50 was 5 to 10 µM.
As for `COc1cc(CN(C(=O)C(c2ccc(-c3ccc(F)c(F)c3)cc2F)n2cc(C(F)F)cn2)[C@@H]2C=CS(=O)(=O)C2)ccn1` (stereo partly drawn) [I-705, 2-[4-(difluoromethyl)-1H-pyrazol-1-yl]-N-[(3R)-1,1-dioxo-2,3-dihydro-1lambda6-thiophen-3-yl]-N-[(2-methoxypyridin-4-yl)methyl]-2-{3,3′,4′-trifluoro-[1,1′-biphenyl]-4-yl}acetamide], the IC50 lay within 0.5 to 5 µM.
The figure for `COc1cc(CN(C(=O)C(c2ccc(-c3ccc(F)c(F)c3)cc2F)n2cc(C#N)cn2)[C@@H]2C=CS(=O)(=O)C2)ccn1` (stereo partly drawn) [I-706, 2-(4-cyano-1H-pyrazol-1-yl)-N-[(3R)-1,1-dioxo-2,3-dihydro-1lambda6-thiophen-3-yl]-N-[(2-methoxypyridin-4-yl)methyl]-2-{3,3′,4′-trifluoro-[1,1′-biphenyl]-4-yl}acetamide] is 0.5 to 5 µM.
